Measured values published in PubChem BioAssay (NCI).
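1) Cells in 96-well plates. 2) Compound, 48 h, 5 concentrations. 3) Linear interpolation between surrounding doses. 4) Unreached endpoint = highest concentration. TGI is the concentration that stops growth completely.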

Tests used:
Assay in all cases: growth of human tumour cells (NCI), 48 h
MDA-MB-435 = tested on: MDA-MB-435
KM12 colon = tested on: KM12 colon
U251 CNS = tested on: U251 CNS
OVCAR-4 ovarian = tested on: OVCAR-4 ovarian
NCI/ADR-RES ovarian = tested on: NCI/ADR-RES ovarian
SF-295 CNS = tested on: SF-295 CNS
786-0 renal = tested on: 786-0 renal
DU-145 prostate = tested on: DU-145 prostate
SF-539 CNS = tested on: SF-539 CNS
HOP-62 NSCLC = tested on: HOP-62 NSCLC
EKVX NSCLC = tested on: EKVX NSCLC
HOP-92 NSCLC = tested on: HOP-92 NSCLC
NCI-H226 lung = tested on: NCI-H226 lung
HCT-15 colon = tested on: HCT-15 colon
ACHN renal = tested on: ACHN renal
OVCAR-3 ovarian = tested on: OVCAR-3 ovarian
HCC-2998 colon = tested on: HCC-2998 colon
MDA-MB-231 breast = tested on: MDA-MB-231 breast
LOX IMVI melanoma = tested on: LOX IMVI melanoma
CCRF-CEM leukemia = tested on: CCRF-CEM leukemia
A549 NSCLC = tested on: A549 NSCLC
SNB-75 CNS = tested on: SNB-75 CNS
HT29 colon = tested on: HT29 colon
K-562 leukemia = tested on: K-562 leukemia
SW-620 colon = tested on: SW-620 colon
NCI-H23 lung = tested on: NCI-H23 lung
HL-60(TB) leukemia = tested on: HL-60(TB) leukemia
MDA-N = tested on: MDA-N
A498 renal = tested on: A498 renal
RXF 393 renal = tested on: RXF 393 renal
TK-10 renal = tested on: TK-10 renal
SNB-19 CNS = tested on: SNB-19 CNS
SK-OV-3 ovarian = tested on: SK-OV-3 ovarian
PC-3 prostate = tested on: PC-3 prostate
NCI-H522 lung = tested on: NCI-H522 lung
SK-MEL-28 melanoma = tested on: SK-MEL-28 melanoma
UACC-257 melanoma = tested on: UACC-257 melanoma
SN12C renal = tested on: SN12C renal
MALME-3M melanoma = tested on: MALME-3M melanoma
UO-31 renal = tested on: UO-31 renal
NCI-H460 lung = tested on: NCI-H460 lung
RPMI-8226 leukemia = tested on: RPMI-8226 leukemia
IGROV1 ovarian = tested on: IGROV1 ovarian
MOLT-4 leukemia = tested on: MOLT-4 leukemia
SF-268 CNS = tested on: SF-268 CNS
HS 578T breast = tested on: HS 578T breast
OVCAR-5 ovarian = tested on: OVCAR-5 ovarian
CAKI-1 renal = tested on: CAKI-1 renal
HCT-116 colon = tested on: HCT-116 colon
BT-549 breast = tested on: BT-549 breast
MCF7 breast = tested on: MCF7 breast
T-47D breast = tested on: T-47D breast
SK-MEL-2 melanoma = tested on: SK-MEL-2 melanoma
COLO 205 colon = tested on: COLO 205 colon
M14 melanoma = tested on: M14 melanoma
UACC-62 melanoma = tested on: UACC-62 melanoma
OVCAR-8 ovarian = tested on: OVCAR-8 ovarian
SR leukemia = tested on: SR leukemia
SK-MEL-5 melanoma = tested on: SK-MEL-5 melanoma

O=C(/C=C/c1cccc2ccccc12)c1ccccc1
TGI (MDA-MB-435): 24.1 µM
TGI (KM12 colon): > 42.2 µM
TGI (U251 CNS): 22 µM
TGI (OVCAR-4 ovarian): 27.1 µM
TGI (NCI/ADR-RES ovarian): 33.6 µM
TGI (SF-295 CNS): 35.1 µM
TGI (786-0 renal): 23.5 µM
TGI (DU-145 prostate): 29 µM
TGI (SF-539 CNS): 15.6 µM
TGI (HOP-62 NSCLC): 43 µM
TGI (EKVX NSCLC): 26.3 µM
TGI (HOP-92 NSCLC): 33.6 µM
TGI (NCI-H226 lung): 27.9 µM
TGI (HCT-15 colon): 23.1 µM
TGI (ACHN renal): 26.9 µM
TGI (OVCAR-3 ovarian): 22.4 µM
TGI (HCC-2998 colon): 34.1 µM
TGI (MDA-MB-231 breast): 25.5 µM
TGI (LOX IMVI melanoma): 4.53 µM
TGI (CCRF-CEM leukemia): 87.3 µM
TGI (A549 NSCLC): > 52.4 µM
TGI (SNB-75 CNS): 30.6 µM
TGI (HT29 colon): 15.8 µM
TGI (K-562 leukemia): 8.69 µM
TGI (SW-620 colon): 15.5 µM
TGI (NCI-H23 lung): 28 µM
TGI (HL-60(TB) leukemia): > 21.2 µM
TGI (MDA-N): 23.9 µM
TGI (A498 renal): 33.3 µM
TGI (RXF 393 renal): 27.5 µM
TGI (TK-10 renal): 17.6 µM
TGI (SNB-19 CNS): 30.2 µM
TGI (SK-OV-3 ovarian): 34.2 µM
TGI (PC-3 prostate): 20.4 µM
TGI (NCI-H522 lung): 25.2 µM
TGI (SK-MEL-28 melanoma): 33.6 µM
TGI (UACC-257 melanoma): 29.7 µM
TGI (SN12C renal): 24.9 µM
TGI (MALME-3M melanoma): 26.9 µM
TGI (UO-31 renal): 16.3 µM
TGI (NCI-H460 lung): 37.2 µM
TGI (RPMI-8226 leukemia): 7.98 µM
TGI (IGROV1 ovarian): 20.5 µM
TGI (MOLT-4 leukemia): > 34.7 µM
TGI (SF-268 CNS): 32.6 µM
TGI (HS 578T breast): > 74.9 µM
TGI (OVCAR-5 ovarian): 28.8 µM
TGI (CAKI-1 renal): 28 µM
TGI (HCT-116 colon): 24.1 µM
TGI (BT-549 breast): 28.5 µM
TGI (MCF7 breast): 15.1 µM
TGI (T-47D breast): 27.3 µM
TGI (SK-MEL-2 melanoma): 34.2 µM
TGI (COLO 205 colon): 48.6 µM
TGI (M14 melanoma): 32.9 µM
TGI (UACC-62 melanoma): 25.3 µM
TGI (OVCAR-8 ovarian): 21.6 µM
TGI (SR leukemia): > 100 µM
TGI (SK-MEL-5 melanoma): 28.4 µM
